Measured values as given in ChEMBL document CHEMBL1201862, “PubChem BioAssay data set” (2004).
Structures can show the parent of a compound that is named as a salt. Active and inactive are the calls of the source.

Legend:
[1] = target: T1, Heat shock factor protein 1 (Mus musculus, UniProt P38532); test: decrease of HSF1-responsive luciferase luminescence – cell-based, NIH3T3, dose retest, confirmation (AID 2382); type: functional;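 further: NIH3T3 fibroblasts with HSF1-driven luciferase reporter stressed by proteasome inhibitor MG132; luminescence from HSF1-driven luciferase expression after 8 hours of MG132 stress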
T1 sequence (P38532 whole entry): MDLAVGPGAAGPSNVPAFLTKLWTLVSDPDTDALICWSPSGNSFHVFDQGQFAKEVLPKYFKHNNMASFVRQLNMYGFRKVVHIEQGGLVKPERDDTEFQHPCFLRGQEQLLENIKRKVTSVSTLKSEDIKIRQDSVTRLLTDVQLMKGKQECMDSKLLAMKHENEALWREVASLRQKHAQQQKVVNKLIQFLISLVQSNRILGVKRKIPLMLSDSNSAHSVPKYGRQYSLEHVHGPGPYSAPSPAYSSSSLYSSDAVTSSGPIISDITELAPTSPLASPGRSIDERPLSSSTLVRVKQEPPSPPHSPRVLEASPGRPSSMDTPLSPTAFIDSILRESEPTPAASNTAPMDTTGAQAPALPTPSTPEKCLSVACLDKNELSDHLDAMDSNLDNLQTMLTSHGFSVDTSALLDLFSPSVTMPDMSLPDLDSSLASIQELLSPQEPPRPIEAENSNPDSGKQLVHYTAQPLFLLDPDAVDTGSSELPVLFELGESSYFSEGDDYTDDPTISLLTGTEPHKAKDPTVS

[2] = target: Solute carrier family 12 member 2/member 5 (Homo sapiens, UniProt P55011+Q9H2X9); test: KCC2 and NKCC1 inhibition by rubidium flux, cell-based, NKCC1 counter-screen (AID 1734); type: functional, HEK293
[3] = target: T2, Sentrin-specific protease 1 (Homo sapiens, UniProt Q9P0U3); test: Dose response confirmation of small molecule inhibitors of the catalytic domain of the SUMO protease, SENP1 in a FRET assay.; type: functional; conditions: read-out: IC50_Mean
T2 sequence (Q9P0U3 whole entry): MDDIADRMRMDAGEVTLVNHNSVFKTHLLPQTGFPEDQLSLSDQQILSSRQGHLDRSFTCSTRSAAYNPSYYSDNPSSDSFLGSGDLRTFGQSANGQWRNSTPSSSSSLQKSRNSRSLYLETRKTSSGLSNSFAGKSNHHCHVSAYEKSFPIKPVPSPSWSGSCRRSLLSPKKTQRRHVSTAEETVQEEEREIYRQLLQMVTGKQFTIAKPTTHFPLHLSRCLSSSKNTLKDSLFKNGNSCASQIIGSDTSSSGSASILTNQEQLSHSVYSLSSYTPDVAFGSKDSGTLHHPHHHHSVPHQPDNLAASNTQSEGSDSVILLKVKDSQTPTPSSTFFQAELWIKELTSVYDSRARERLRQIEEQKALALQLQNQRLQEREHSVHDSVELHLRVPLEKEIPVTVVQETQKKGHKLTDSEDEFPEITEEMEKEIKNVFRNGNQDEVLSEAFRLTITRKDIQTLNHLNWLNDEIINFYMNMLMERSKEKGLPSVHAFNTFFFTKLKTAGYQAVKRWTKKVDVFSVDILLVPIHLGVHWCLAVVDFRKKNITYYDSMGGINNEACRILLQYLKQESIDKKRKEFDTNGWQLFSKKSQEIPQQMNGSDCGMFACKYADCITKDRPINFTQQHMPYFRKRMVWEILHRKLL

Bcl-2-related protein A1 [4] = target: T3, Bcl-2-related protein A1 (Mus musculus, UniProt Q07440); test: displacement of Bid BH3 peptide from Bfl-1 – biochemical, fluorescence polarization, FITC-Bid, mouse, primary screen (AID 432)
T3 sequence (Q07440 whole entry): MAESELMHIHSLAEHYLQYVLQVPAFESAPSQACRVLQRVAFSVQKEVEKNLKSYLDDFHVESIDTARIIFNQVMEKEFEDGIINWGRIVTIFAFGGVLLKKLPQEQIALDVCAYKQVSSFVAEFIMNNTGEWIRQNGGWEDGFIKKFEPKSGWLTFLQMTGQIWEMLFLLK

Bcl-2-related protein A1 [5] = target: T3, Bcl-2-related protein A1; test: small-molecule antagonists of Bfl-1/BH3 interaction – biochemical, TR-FRET, mouse Bfl-1, confirmation (AID 621);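 further: TR-FRET binding of GST-Bfl-1 to FITC-labelled Bid peptide via terbium antibody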
[6] = target: T2, Sentrin-specific protease 1; test: SENP1 catalytic domain blockers, concentration series – biochemical, kinetic FRET, dose response (AID 651697); type: functional; conditions: read-out: IC50_Mean
[7] = target: UDP-galactopyranose mutase (Mycobacterium tuberculosis, UniProt P9WIQ1); test: Inhibitors of Mycobacterium tuberculosis UDP-galactopyranose mutase (UGM) enzyme Measured in Biochemical System Using Plate Reader - 2105-02_Inhibitor_Dose_CherryPick_Activity. [Related pubchem assays (depositor defined):AID504439]
Sequence of UDP-galactopyranose mutase (P9WIQ1 whole entry): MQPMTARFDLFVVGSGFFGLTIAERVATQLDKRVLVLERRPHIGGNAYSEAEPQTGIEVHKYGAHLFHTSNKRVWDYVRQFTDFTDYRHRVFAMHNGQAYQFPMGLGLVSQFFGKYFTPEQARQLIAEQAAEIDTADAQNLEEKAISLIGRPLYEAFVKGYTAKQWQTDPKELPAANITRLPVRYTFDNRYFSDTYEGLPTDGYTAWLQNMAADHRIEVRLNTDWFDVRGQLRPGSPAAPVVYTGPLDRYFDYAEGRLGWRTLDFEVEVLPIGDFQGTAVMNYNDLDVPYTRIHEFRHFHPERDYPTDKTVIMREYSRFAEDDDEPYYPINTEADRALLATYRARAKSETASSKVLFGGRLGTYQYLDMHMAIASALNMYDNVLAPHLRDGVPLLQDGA

Heat shock protein HSP90 = Heat shock protein HSP90 (Homo sapiens, UniProt P07900+P08238); test: Hsp90 blockade concentration-response – dose response (AID 712); type: functional
14-3-3 protein gamma = target: T4, 14-3-3 protein gamma (Homo sapiens, UniProt P61981); test: modulators of 14-3-3 gamma client binding – dose response (AID 711); type: functional
T4 sequence (P61981 whole entry): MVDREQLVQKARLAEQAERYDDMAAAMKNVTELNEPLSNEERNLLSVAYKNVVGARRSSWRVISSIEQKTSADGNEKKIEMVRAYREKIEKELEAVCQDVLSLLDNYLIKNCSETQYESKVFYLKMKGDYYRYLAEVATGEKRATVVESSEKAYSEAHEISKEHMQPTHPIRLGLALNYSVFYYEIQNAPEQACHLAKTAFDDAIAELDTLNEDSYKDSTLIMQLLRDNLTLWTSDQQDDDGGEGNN

[8] = target: T5, Endoribonuclease toxin MazF (Escherichia coli K-12, UniProt P0AE70); test: substrate-only fluorescence increase artefacts – biochemical, single-stranded RNase substrate, counter-screen for MazEF activator project, dose response (AID 588502); type: functional
T5 sequence (P0AE70 whole entry): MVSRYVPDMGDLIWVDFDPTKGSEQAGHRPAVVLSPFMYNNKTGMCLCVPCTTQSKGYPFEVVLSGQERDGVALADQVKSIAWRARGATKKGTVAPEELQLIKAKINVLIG

Troponin, cardiac muscle = Troponin, cardiac muscle (Homo sapiens, UniProt P19429+P45379+P63316); test: Fluorescence-based biochemical high throughput dose response assay for activators of the calcium sensitivity of cardiac Regulated Thin Filaments (RTF). [Related pubchem assays (depositor defined):AID493008, AID493018, AID504382, AID504383]; type: protein-complex assay
[9] = target: T6, Corticotropin-releasing factor receptor 2/Corticotropin-releasing factor-binding protein (Homo sapiens, UniProt P24387+Q13324); test: activators of CRF receptor 2 with binding protein – uHTS hits, confirmation (AID 602473); type: functional; conditions: read-out: EC50_Mean
T6 sequence (Q13324 whole entry): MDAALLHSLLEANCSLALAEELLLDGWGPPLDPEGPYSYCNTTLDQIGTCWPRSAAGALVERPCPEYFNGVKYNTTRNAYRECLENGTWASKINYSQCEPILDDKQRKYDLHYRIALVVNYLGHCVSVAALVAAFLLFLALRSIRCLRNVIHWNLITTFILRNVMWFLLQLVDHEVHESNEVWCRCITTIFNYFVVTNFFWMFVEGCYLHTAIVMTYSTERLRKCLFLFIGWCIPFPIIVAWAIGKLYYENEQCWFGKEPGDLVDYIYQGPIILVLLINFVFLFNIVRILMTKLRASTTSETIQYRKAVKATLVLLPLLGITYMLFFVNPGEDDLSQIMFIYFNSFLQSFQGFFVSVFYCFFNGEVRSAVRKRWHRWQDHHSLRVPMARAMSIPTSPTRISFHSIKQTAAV
T6 sequence (P24387 whole entry): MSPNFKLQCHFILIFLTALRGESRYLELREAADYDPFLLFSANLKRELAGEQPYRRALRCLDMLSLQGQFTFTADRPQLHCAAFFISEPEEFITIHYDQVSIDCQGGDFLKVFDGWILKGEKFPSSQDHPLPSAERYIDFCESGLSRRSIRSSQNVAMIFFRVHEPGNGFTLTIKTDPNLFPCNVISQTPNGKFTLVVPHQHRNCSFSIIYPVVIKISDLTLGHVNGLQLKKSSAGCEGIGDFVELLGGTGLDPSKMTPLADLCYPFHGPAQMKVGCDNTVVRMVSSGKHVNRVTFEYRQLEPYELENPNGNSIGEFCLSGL

[10] = target: T7, RNA-binding protein pos-1 (Caenorhabditis elegans, UniProt G5EF15); test: disruptors of C. elegans POS-1 RNA interaction – biochemical, fluorescence polarization, dose response (AID 1964);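 further: purified POS-1 fused to maltose binding protein made in E. coli; potency of compounds blocking POS-1 binding to fluorescent RNA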
T7 sequence (G5EF15 whole entry): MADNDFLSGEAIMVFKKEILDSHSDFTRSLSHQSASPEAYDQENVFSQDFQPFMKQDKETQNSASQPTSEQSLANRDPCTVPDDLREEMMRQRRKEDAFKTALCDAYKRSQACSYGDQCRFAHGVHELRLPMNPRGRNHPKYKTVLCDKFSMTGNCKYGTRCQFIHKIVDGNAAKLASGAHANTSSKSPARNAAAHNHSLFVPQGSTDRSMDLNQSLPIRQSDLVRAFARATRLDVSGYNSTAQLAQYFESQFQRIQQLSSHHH

[11] = target: T5, Endoribonuclease toxin MazF; test: activation of MazEF endoribonuclease cleavage – biochemical, fluorescence, single-stranded RNA substrate, uHTS hits, dose response (AID 588481); type: functional
HEK293 = test: Fluorescence-based counterscreen for potentiators or agonists of NPY-Y2: cell-based high-throughput dose response assay to identify inhibitors of cyclic nucleotide gated ion channel (CNGC) activity. In this assay, the parental HEK293 cell line transfected with a cyclic-nucleotide gated ion channel (CNGC)-based cAMP sensor is used to measure inhibition of isoproterenol-induced CNGC activity by test compound.; type: functional; conditions: Homo sapiens;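 further: stimulus is 1 µM isoproterenol at EC100 plus PDE inhibitor Ro 20-1724 at 25 µM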

Cc1csc(NC(=O)CSc2ccc(-c3ccccc3)nn2)n1
EC50 [1]: > 195 µM (not active) | IC50 [2]: 0.56 µM (active)

Nc1ccc(C2CCCc3nonc32)c2nonc12 (stereo not given)
IC50 [3]: 39.4 µM (inactive) | IC50 (Bcl-2-related protein A1 [4]): > 100 µM (not active) | IC50 (Bcl-2-related protein A1 [5]): > 100 µM (not active) | IC50 [6]: 42 µM (inactive)

CN(C)c1ccc(/N=C/c2nc(-c3ccccc3)oc2O)cc1
AC50 [7]: 68.2 µM (active) | IC50 (Heat shock protein HSP90): 27.302 µM | IC50 (14-3-3 protein gamma): 9.68 µM (active) | EC50 [8]: 56.6 µM (inactive) | EC50 (Troponin, cardiac muscle): 3.71 µM (active) | EC50 [9]: 7.96 µM (active) | EC50 [10]: 5.7 µM (active) | EC50 [11]: 46.7 µM (inactive)

COCCc1ccc(OCC(O)CNC(C)C)cc1 (stereo not given) [METOPROLOL TARTRATE]
EC50 (HEK293): 2.99 µM (active)
